Columns and labels:
[1] = Ten-week MTD feeding study: weight gain and toxicity; assay type: in vivo
Experimental: Inbred Fischer F344 males (n=70) and females (n=70) were obtained from Taconic Farms, Germantown, N.Y. At about 35 days of age, all animals were transferred to the experimental room from quarantine. The animals were then allocated into experimental groups using formal randomization methods to ensure that each group contained animals of the same mean weight.
A ten-week pilot study was conducted as described in Table 2 & FIG. 2 to determine the maximal tolerated dose (MTD) for lycopene in both male (colon model) and female (breast model) rats. The choice of dose ranges was based on published values for β-carotene. A mixed carotenoid composition containing 5.7% carotenoids, including 3.7% pure lycopene was suspended in medium chain triglycerides (this composition will be referred to below as the “Lycopene Suspension”). The Lycopene Suspension was incorporated into the AIN-76A diet.
Differences in the lipid content of the various treatment groups were controlled by supplementing their diets with appropriate amounts of Neobee® medium chain triglyceride (Stepan Co., Maywood, N.J.) such that all animals, including controls, received the same amount of dietary fat.
Animal weights were recorded once per week and animal appearance (coat texture) and food avoidance behavior assessed. By concentration,
the maximal tolerated dose is that dose which […] mean body weight loss.

[2] = Lycopene content of rat prostate gland; assay type: in vivo, Fischer 344 rats; details: male
Description: homogenized. […] This hexane extraction procedure was repeated 5-7 times.

[3] = Lycopene content of rat serum; assay type: in vivo, Fischer 344 rats
Experimental: Prior to termination, 3 animals from each group were placed in metabolic cages and 24-hour urine and fecal collections made for subsequent lycopene assay. Blood was collected by heart puncture under anesthesia for lycopene assay and all animals were sacrificed by CO2 anesthesia. Blood and feces were stored at −20° C. At necropsy, all major organ systems were grossly inspected. Any unusual appearing tissues were placed in formalin and saved for later histological examination.
Extraction of lycopene from serum was conducted by adding 1 ml of serum to 0.1 ml echinenone standard in ethanol and 0.9 ml ethanol. The mixture was then vortexed for 20 seconds, and 2.0 ml hexane added and mixed vigorously for 1 minute. The cloudy mixture was then centrifuged at 3,000 rpm for 15 minutes at 4° C. and the clear hexane layer was decanted. The above procedure was repeated 3-5×. The pooled hexane fraction was then dried under N2 gas at 60° C., and the residue dissolved in 0.5 ml HPLC solvent and analyzed by HPLC.

[4] = Preliminary feeding study, one male rat, 3 weeks; assay type: in vivo; details: 2.5 mM/kg diet
Experimental: One male rat was fed 2.5 mM lycopene (+other carotenoids)/kg diet for a period of 3 weeks. At this high dose, no change in body weight or food consumption was seen. […] The tail was brown. At necropsy, the liver was a deep red, as was the cecum and small intestine.

[5] = Carotenoid content of Lycopene Suspension-supplemented diets after 7 months storage; assay type: physicochemical; details: for Carotenoid content of diet: stored at −20 °C for 7 months
Experimental: When the Lycopene Suspension (Henkel Corporation, La Grange, Ill.) was extracted by organic extraction methods, the major carotenoid was lycopene, but a number of other carotenoids were known to be present in tomatoes, α- and β-Carotene, phytofluene and phytoene were also present (FIGS. 6 & 7). The quantitative profile of carotenoids in the Lycopene Suspension was carried out using an HPLC system as described above, equipped with a photodiode array detector. The six major components can be seen in Table 7.
(Table 10). Note that all the major carotenoids plus the lycopene metabolite present in the Lycopene Suspension are present in the diets in the same relative proportions. However, the net loss of lycopene over 7 months was 66%, 38%, 40%, 44% and 60%, in treatment groups 1-5, respectively; in contrast, β-carotene concentrations declined by only 10% of original values over the same time period.

[6] = female, Group 1 (1280 mg/kg diet)
[7] = female, Group 2 (512 mg/kg diet)
[8] = female, Group 3 (256 mg/kg diet)
[9] = female, Group 5 (51 mg/kg diet)
[10] = male, Group 1 (1280 mg/kg diet)

Structure (SMILES): CC(C)=CCC/C(C)=C/C=C/C(C)=C/C=C/C(C)=C/C=C/C=C(C)/C=C/C=C(C)/C=C/C=C(\C)CCC=C(C)C [Lycopene]
- toxicity ([1]; F-344 rat, dose range used): no evidence of lycopene toxicity
- difference in weight gains between doses ([1]; analysis of variance for repeated measures): no difference
- weight gain difference, control vs supplemented rats ([1]; end of 10 weeks): ≤ 10%
- effect on food intake or weight gain ([1]; male and female rats, dosage range used): no deleterious effect
- Lycopene content of prostate gland, Median ([2]; Group 1 (1280 mg/kg diet)): 99 ng/g
- Lycopene content of prostate gland, Range ([2]; Group 1 (1280 mg/kg diet)): 79 to 112 ng/g
- Lycopene content of prostate gland, mean ± SD ([2]; Group 1 (1280 mg/kg diet)): 97 ± 17 ng/g
- Lycopene content of prostate gland, Median ([2]; Group 2 (512 mg/kg diet)): 83 ng/g
- Lycopene content of prostate gland, Range ([2]; Group 2 (512 mg/kg diet)): 54 to 147 ng/g
- Lycopene content of prostate gland, mean ± SD ([2]; Group 2 (512 mg/kg diet)): 95 ± 48 ng/g
- Lycopene content of prostate gland, Median ([2]; Group 3 (256 mg/kg diet)): 35 ng/g
- Lycopene content of prostate gland, Range ([2]; Group 3 (256 mg/kg diet)): 23 to 93 ng/g
- Lycopene content of prostate gland, mean ± SD ([2]; Group 3 (256 mg/kg diet)): 50 ± 37 ng/g
- Lycopene content of prostate gland, Median ([2]; Group 4 (128 mg/kg diet)): 52 ng/g
- Lycopene content of prostate gland, Range ([2]; Group 4 (128 mg/kg diet)): 26 to 77 ng/g
- Lycopene content of prostate gland, mean ± SD ([2]; Group 4 (128 mg/kg diet)): 52 ± 26 ng/g
- Lycopene content of prostate gland, Median ([2]; Group 5 (51 mg/kg diet)): 47 ng/g
- Lycopene content of prostate gland, Range ([2]; Group 5 (51 mg/kg diet)): 32 to 63 ng/g
- Lycopene content of prostate gland, mean ± SD ([2]; Group 5 (51 mg/kg diet)): 47 ± 16 ng/g
- concentration at 10 weeks ([3]; both sexes, Fischer 344, rat, serum, oral, all supplemented groups, males and females, read-out: Serum lycopene levels, overall low to high): 80 to 370 ng/mL
- Lycopene content of serum, Median [3, 6]: 205 ng/mL
- Lycopene content of serum, Range [3, 6]: 123 to 232 ng/mL
- Lycopene content of serum, mean ± SD [3, 6]: 187 ± 043 ng/mL
- Lycopene content of serum, Median [3, 7]: 180 ng/mL
- Lycopene content of serum, Range [3, 7]: 109 to 211 ng/mL
- Lycopene content of serum, mean ± SD [3, 7]: 169 ± 042 ng/mL
- Lycopene content of serum, Median [3, 8]: 210 ng/mL
- Lycopene content of serum, Range [3, 8]: 174 to 366 ng/mL
- Lycopene content of serum, mean ± SD [3, 8]: 245 ± 083 ng/mL
- Lycopene content of serum, Median [3, 9]: 152 ng/mL
- Lycopene content of serum, Range [3, 9]: 081 to 207 ng/mL
- Lycopene content of serum, mean ± SD [3, 9]: 145 ± 053 ng/mL
- Lycopene content of serum, Median [3, 10]: 160 ng/mL
- Lycopene content of serum, Range [3, 10]: 134 to 230 ng/mL
- Lycopene content of serum, mean ± SD [3, 10]: 168 ± 036 ng/mL
- Lycopene content of serum, Median ([3]; male, Group 2 (512 mg/kg diet)): 225 ng/mL
- Lycopene content of serum, Range ([3]; male, Group 2 (512 mg/kg diet)): 148 to 326 ng/mL
- Lycopene content of serum, mean ± SD ([3]; male, Group 2 (512 mg/kg diet)): 227 ± 068 ng/mL
- Lycopene content of serum, Median ([3]; male, Group 3 (256 mg/kg diet)): 285 ng/mL
- Lycopene content of serum, Range ([3]; male, Group 3 (256 mg/kg diet)): 174 to 372 ng/mL
- Lycopene content of serum, mean ± SD ([3]; male, Group 3 (256 mg/kg diet)): 278 ± 066 ng/mL
- Lycopene content of serum, Median ([3]; male, Group 4 (128 mg/kg diet)): 215 ng/mL
- Lycopene content of serum, Range ([3]; male, Group 4 (128 mg/kg diet)): 153 to 328 ng/mL
- Lycopene content of serum, mean ± SD ([3]; male, Group 4 (128 mg/kg diet)): 231 ± 064 ng/mL
- Lycopene content of serum, Median ([3]; male, Group 5 (51 mg/kg diet)): 177 ng/mL
- Lycopene content of serum, Range ([3]; male, Group 5 (51 mg/kg diet)): 100 to 238 ng/mL
- Lycopene content of serum, mean ± SD ([3]; male, Group 5 (51 mg/kg diet)): 171 ± 049 ng/mL
- change in body weight or food consumption [4]: no change
- Carotenoid content of diet ([5]; Diet 1, 2.5 mM/kg diet): 472 μg/gm (ppm)
- Carotenoid content of diet ([5]; Diet 2, 1.0 mM/kg diet): 348 μg/gm (ppm)
- Carotenoid content of diet ([5]; Diet 3, 0.5 mM/kg diet): 168 μg/gm (ppm)
- Carotenoid content of diet ([5]; Diet 4, 0.25 mM/kg diet): 92 μg/gm (ppm)
- Carotenoid content of diet ([5]; Diet 5, 0.10 mM/kg diet): 22 μg/gm (ppm)
- net loss over 7 months ([5]; diet of treatment group 1, 7 months storage): 66%
- net loss over 7 months ([5]; diet of treatment group 2, 7 months storage): 38%
- net loss over 7 months ([5]; diet of treatment group 3, 7 months storage): 40%
- net loss over 7 months ([5]; diet of treatment group 4, 7 months storage): 44%
- net loss over 7 months ([5]; diet of treatment group 5, 7 months storage): 60%

— US20040191297A1, “Carotenoid formulation” (priority 1997, published 2004)
